Test results taken from patent US20110195402A1, “SYSTEMS AND METHODS FOR DETECTING DRUG USE” (priority 2010, published 2011).
Several values for one entry are separate records, joined by “and”; a condition that tells them apart may be missing. Equal values may be shown once.

Tests used:
peroxidase = assay: Peroxidase assay in saliva (Amplex Red); assay type: biochemical; conditions: test compound at 500 ppm, pooled or unpooled saliva, 30 minutes; FIGS. 26-29
Description: To determine the effect of various GRAS compounds as inhibitors of peroxidase activity, a standard assay using Amplex® Red (Life Technologies), which releases a fluorescent oxidation product.
The test compounds, such as GRAS materials or cocktails of same, were prepared at a concentration of 500 ppm in distilled water. For the assay, 50 μl samples of test compounds were mixed with 20-30 μl of saliva (either “pooled” or “unpooled”) prior to the addition of Amplex® Red. […] Reactions were allowed to run for 30 minutes during these assays.

lysozyme = molecular target: T1, lysozyme (Homo sapiens, UniProt P61626); assay: Lysozyme inhibition saliva screening (fluorescein-labeled Micrococcus lysodeikticus); assay type: biochemical; conditions: 100% saliva samples (data not shown)
T1 sequence (P61626 19-148): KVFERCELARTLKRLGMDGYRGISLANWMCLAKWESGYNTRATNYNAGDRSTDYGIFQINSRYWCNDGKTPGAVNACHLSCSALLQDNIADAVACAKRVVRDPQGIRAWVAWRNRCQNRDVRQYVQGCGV
Text: Further details of these five compounds may also be seen in Table 5.

α-amylase = molecular target: T2, α-amylase (Homo sapiens, UniProt P0DUB6); assay: α-Amylase inhibition saliva screening (2-chloro-p-nitrophenol-maltotriose substrate, 405 nm); assay type: biochemical; conditions: for Ave (reading, absorbance at 405 nm) / reading (absorbance at 405 nm), single replicates: test compound prepared at 5,000 ppm, 37° C., control column '100% Saliva'; for inhibition of α-Amylase: 100% saliva samples, FIG. 11; for α-Amylase Inhibitor Activity: dilute (3.5%) saliva, FIG. 10
T2 sequence (P0DUB6 16-511): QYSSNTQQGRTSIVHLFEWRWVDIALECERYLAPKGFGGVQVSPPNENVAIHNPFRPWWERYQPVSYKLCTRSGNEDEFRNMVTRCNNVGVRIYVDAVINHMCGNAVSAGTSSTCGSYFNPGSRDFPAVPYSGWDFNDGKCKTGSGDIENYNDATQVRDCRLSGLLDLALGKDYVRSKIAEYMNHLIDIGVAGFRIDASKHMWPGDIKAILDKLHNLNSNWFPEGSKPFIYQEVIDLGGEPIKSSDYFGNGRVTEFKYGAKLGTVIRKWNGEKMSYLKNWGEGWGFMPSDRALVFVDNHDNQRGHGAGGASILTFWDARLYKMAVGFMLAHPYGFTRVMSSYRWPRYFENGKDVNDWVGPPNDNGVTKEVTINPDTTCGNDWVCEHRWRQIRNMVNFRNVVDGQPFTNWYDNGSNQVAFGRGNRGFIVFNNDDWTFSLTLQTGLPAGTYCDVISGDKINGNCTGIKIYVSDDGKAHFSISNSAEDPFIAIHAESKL
Text: Further details of these five compounds may also be seen in Table 4.

protease = conditions: natural protease inhibitor; Table II; cited from earlier work

With `Cn1c(=O)c2c(ncn2C)n(C)c1=O` [CDI-33, Caffeine] the peroxidase inhibition (peroxidase) was “significant peroxidase inhibition capabilities”.

With `COc1ccc(O)c(C(C)(C)C)c1` [CDI-39, 3-tert--butyl-hydroxyanisole] the peroxidase inhibition (peroxidase) was “significant peroxidase inhibition capabilities”.

With `O=C(O)c1ccccc1` [CDI-40, Benzoic acid] the “inhibition of Lysozyme” value (lysozyme) was “inhibit Lysozyme”.

In the case of “Aluminum potassium sulfate dodecahydrate [CDI-42]”, the “Ave (reading, absorbance at 405 nm)” value (α-amylase; 0 min) is reported as 0.92, the “reading (absorbance at 405 nm), single replicates” value (shortened to “reading (absorbance at 405 nm)”) (α-amylase; 0 min) is reported as 0.80 and 1.13 and 0.90 and 0.84 and the “inhibition of α-Amylase” value (α-amylase) is reported as “inhibit α-Amylase”. For the same molecule, the “Ave (reading, absorbance at 405 nm)” value (α-amylase; 5 min) was 1.85, the “reading (absorbance at 405 nm)” value (α-amylase; 5 min) was 1.65 and 2.15 and 1.80 and 1.81 and the “Ave (reading, absorbance at 405 nm)” value (α-amylase; 15 min) was 2.29. For the same molecule, the “reading (absorbance at 405 nm)” value (α-amylase; 15 min) was 2.37 and 2.38 and 2.25 and 2.17, the “α-Amylase Inhibitor Activity” value (α-amylase) was “α-Amylase Inhibitor Activity” and the peroxidase inhibition (peroxidase) was “significant peroxidase inhibition capabilities”.

With Aluminum sulfate hydrate [CDI-34] the “Ave (reading, absorbance at 405 nm)” value (α-amylase; 0 min) was 0.40, the “reading (absorbance at 405 nm)” value (α-amylase; 0 min, sulfate hydrate) was 0.40 (2×) and 0.36 and 0.45 and the “inhibition of α-Amylase” value (α-amylase) was “inhibit α-Amylase”. For the same molecule, the “Ave (reading, absorbance at 405 nm)” value (α-amylase; 5 min) was 0.50, the “reading (absorbance at 405 nm)” value (α-amylase; 5 min, sulfate hydrate) was 0.49 and 0.50 (2×) and 0.52 and the “Ave (reading, absorbance at 405 nm)” value (α-amylase; 15 min) was 0.56. For the same molecule, the “reading (absorbance at 405 nm)” value (α-amylase; 15 min, sulfate hydrate) was 0.53 and 0.61 and 0.54 and 0.56 and the “α-Amylase Inhibitor Activity” value (α-amylase) was “α-Amylase Inhibitor Activity”.

B1: Soybeans: primary soybean protease inhibitor, 20.7-22.3 kDa (protein, UniProt P01070 25-205, looked up)
Trypsin inhibitor A: DFVLDNEGNPLENGGTYYILSDITAFGGIRAAPTGNERCPLTVVQSRNELDKGIGTIISSPYRIRFIAEGHPLSLKFDSFAVIMLCVGIPTEWSVVEDLPEGPAVKIGENKDAMDGWFRLERVSDDEFNNYKLVFCPQQAEDDKCGDIGISIDHDDGTRRLVVSKNKPLVVQFQKLDKESL
For B1, the Inhibitory power (protease) is given as 1.2 times times weight.
